We go through seven compounds from PMC7762659, “Phenolic Compounds from Polygonum chinense Induce Growth Inhibition and Apoptosis of Cervical Cancer SiHa Cells” (BioMed Research International, 2020).

Where two headings read alike, the source gives them in different places.

Assay type in all cases: cell-based, human
One assay deals with HcerEpic cells. The assay can be described thus: CCK8 antiproliferative activity assay on HcerEpic cells. The conditions noted are these: 48 h, read-out: IC50, antiproliferation activity on HcerEpic cells (PC phenolics). Here is the method: (§1) The SiHa cell line was obtained from American Type Culture Collection (ATCC, Manassas, Virginia, VA, USA); HcerEpic cell was obtained from ScienCell (San Diego, Los Angeles, LA, USA). The cells were maintained in medium RP1640 containing 10% FBS, high glucose DMEM cultured with 100 U/ml of penicillin, and 100 U/ml of streptomycin, in a humidified CO2 (5%) incubator at 37°C. All reagents for cell cultures were purchased from Invitrogen (Carlsbad, California, CA, USA).
(§2) SiHa and HcerEpic cells were cultured in 96-well plates at approximately 7.5 × 10^3 cells per well and incubated for 12 h. Then, cells were treated with different concentrations of PC extracts (5, 10, 25, 50, and 100 μg/mL) or seven PC PHE (10, 20, 40, 60, and 80 μM). After incubation of 48 h, then 10 μL CCK8 reagent added per hole, placed in the incubator 2 h, incubation, enzyme standard instrument determination at 450 nm absorbance (OD value).
(§3) Cell vitality∗(%) = [A (dosing) − A (blank)]/[A dosing (O) − A (blank)] × 100%A (dosing): OD values of Wells with cell, CCK8 solution, and drug solution.
(§4) A (blank): OD values of Wells with medium, CCK8 solution, and no cells.
(§5) A (0 dosing): OD values of Wells with cell and CCK8 solution but no drug solution.
(Formazan colour is commonly taken as a measure of viable cells.)

The test system of a further assay is SiHa cells. Kind of assay: CCK8 antiproliferative activity assay on SiHa cells. The note with it: 48 h, read-out: IC50, antiproliferation activity on SiHa cells (PC phenolics). Here is the method: as §1, §2, §3, §4, §5
In assay [1] the test system is P53, Bax, Bcl-2, caspase 3, caspase 9 in SiHa cells. The assay can be described thus: Western blot of apoptosis-related proteins in SiHa cells. The note with it: SiHa cells, 25, 50, 75 μM, 48 h, compared with control. Here is the method:
We followed the Western blot methods of Tu et al. 2020 [24]. […] The culture was terminated after 48 h. Then, cells were collected and proteins were extracted with RIPA lysis buffer containing a protease inhibitor cocktail. The total protein concentrations were measured using the Bradford method, and the normalized protein samples were added to 4 sample buffer, then boiled and denatured. Equal amounts of proteins were separated by SDS-PAGE and then transferred to nitrocellulose membranes. The membranes were blocked and then probed with indicated primary antibodies, respectively, with anti-P53 (1 : 1000), anti-Bax (1 : 1000), anti-Bcl-2 (1 : 1000), anti-caspase 3 (1 : 2500), anti-caspase 9 (1 : 2500), anti-cleaved-caspase 3 (1 : 1000), and anti-cleaved-caspase 9 (1 : 1000), at 4°C overnight. Antibodies were purchased from Abcam (Santa Cruz, California, CA, USA); others were from Cell Signaling Technology (Cell Signaling, Danvers, Massachusetts, MA, USA). All antibodies were diluted with 5% BSA in TBST buffer. The blots were rinsed and then incubated with secondary antibodies (anti-mouse antibody or anti-rabbit antibody, 1 : 5000, Cell Signaling Technology). Reactive bands were visualized using ECL (Thermo Fisher Scientific; Waltham, MA, USA) and then calibrated by ChemiDoc Imaging System (Bio-Rad; Hercules, California, CA, USA).
(In general: Immunoblotting shows a protein as a band on a membrane.)

Regarding `O=C1CC(C(=O)O)c2c1oc(=O)c1cc(O)c(O)c(O)c21` (stereo not shown) [Brevifolin carboxylic acid], the IC50 in the assay with HcerEpic cells and with SiHa cells was greater than 100 µM in each case.
In the case of `O=C(/C=C/c1ccc(O)c(O)c1)O[C@@H]1C[C@](O)(C(=O)O)C[C@@H](O)[C@H]1O` [Chlorogenic acid], the IC50 with HcerEpic cells (Homo sapiens) is greater than 100 µM; in the assay with SiHa cells (Homo sapiens, SiHa) it was greater than 100 µM.
As for `O=C(O)C[C@@H]1C(=O)O[C@H]2[C@@H]3OC(=O)c4cc(O)c(O)c(O)c4-c4c(cc(O)c(O)c4O)C(=O)OC[C@H]2O[C@@H](OC(=O)c2cc(O)c(O)c(O)c2)[C@@H]3OC(=O)c2cc(O)c(O)c3c2[C@H]1[C@H](O)C(=O)O3` [Chebulagic acid], the IC50 was greater than 100 µM in the assay with HcerEpic cells (Homo sapiens) and greater than 100 µM in the assay on SiHa cells (Homo sapiens, SiHa).
For `O=c1oc2c(O)c(O)cc3c(=O)oc4c(O)c(O)cc1c4c23` [Ellagic acid], in the assay with HcerEpic cells (Homo sapiens), the IC50 is greater than 100 µM. In assay [1], the “expression level of Bcl-2 protein” value was “downregulated”, the “expression level of Caspase3 protein” value is “significantly upregulated”, the “expression level of Csapase9 protein” value is “significantly upregulated” and the “expression level of P53 protein” value was “significantly upregulated”. In the assay on SiHa cells (Homo sapiens, SiHa), the IC50 worked out at 21.5 µM.
On to `O=C(O[C@@H]1O[C@@H]2COC(=O)c3cc(O)c(O)c(O)c3-c3c(cc(O)c(O)c3O)C(=O)O[C@H]([C@H]1O)[C@@H]2O)c1cc(O)c(O)c(O)c1` [Corilagin], for which, in the assay on HcerEpic cells (Homo sapiens), the IC50 is greater than 100 µM. Further, in assay [1], the “expression level of Bcl-2 protein” value is given as “downregulated”, the “expression level of Caspase3 protein” value is given as “significantly upregulated”, the “expression level of Csapase9 protein” value is reported as “significantly upregulated” and the “expression level of P53 protein” value is on record as “significantly upregulated”. Also, the IC50 in the assay on SiHa cells (Homo sapiens, SiHa) stood at 28.7 µM.
For the compound Citrate acid, the IC50 in the assay on HcerEpic cells and in the assay with SiHa cells was greater than 100 µM in each case.
`O=C(O)c1cc(O)c(O)c(O)c1` [Gallic acid]: the IC50 in the assay on HcerEpic cells (Homo sapiens) was greater than 100 µM; with SiHa cells (Homo sapiens, SiHa), greater than 100 µM.
